Laboratory results taken from EP0298385A2, “Cyctostatic anthracyclin derivatives” (BEHRINGWERKE Aktiengesellschaft, priority 1987, dated 1989).
Converted amounts (≈) assume the structure as drawn. Where two headings read alike, the source gives them in different places.

Assays:
L1210 Leukämiezellen = assay: Colony formation of L1210 leukemia cells in soft agar (cytotoxicity in vitro); assay type: cell-based, Maus; conditions: for IC50: Mus musculus
From the text: Die zytostatische Wirksamkeit der erfindungsgemäßen Verbindungen wurde anhand von L1210 Leukämiezellen der Maus getestet. Hierzu wurde die Koloniebildung von L1210 Leukämiezellen in Agarplatten herangezogen. Diese Methode dient zum Nachweis des Einflusses der Testsubstanzen auf das Wachstumsverhalten der Zellen über 1 Stunde oder über mehrere Generationen. Bei einer Zellzykluszeit von 10-12 Stunden werden dabei in der Testzeit von 7 Tagen etwa 14 aufeinanderfolgende Generationen beobachtet. Die erfindungsgemäßen zytostatisch wirksamen Substanzen bewirken in diesem Test eine Reduktion der zu beobachtenden Koloniezahl gegenüber einer unbehandelten Kontrollprobe.
Verfahrensweise zur Ermittlung der Koloniebildung von L1210 Leukämiezellen in Soft-Agar
500 Leukämiezellen pro Platte wurden mit unterschiedlichen Konzentrationen der Testsubstanz 1 Stunde bei 37°C inkubiert. Anschließend wurden die Zellen zweimal mit McCoy5A-Medium gewaschen und schließlich in Petrischalen nach Zugabe von 0,3 % Agar ausgegossen. Kontrollen wurden lediglich mit frischem Medium inkubiert. Anstelle der einstündigen Inkubation wurden in manchen Fällen unterschiedliche Konzentrationen der Testsubstanzen der oberen Agarschicht zugemischt, um so eine kontinuierliche Exposition der Zellen über die gesamte Inkubationszeit zu erreichen. Nach Erstarren des Agars wurden die Platten im Brutschrank 7 Tage bei 37°C inkubiert (5 Vol. -% CO₂, 95 % relative Luftfeuchtigkeit). Anschließend wurde die Zahl der entstandenen Kolonien mit einem Durchmesser von mehr als 60 µm gezählt. Die Ergebnisse wurden angegeben als Koloniezahl in behandelten Agarplatten in Prozent der unbehandelten Kontrolle. Aus der so erhaltenen Dosiswirkungskurve wurde die IC₅₀ als Maß für die Wirksamkeit der Substanz ermittelt. Die Ergebnisse für die hier beschriebenen Verbindungen im Vergleich zu Adriamycin sind in der nachfolgenden Tabelle 1 zusammengefaßt.
Die Struktur der hergestellten Verbindungen wurde mittels ¹H-NMR- Spektroskopie, UV-Spektroskopie und HPLC-Technik ermittelt. Der Verlauf der Reaktionen wurde, soweit möglich, dünnschichtchromatographisch auf Kieselgel-Fertigplatten verfolgt. Die Ergebnisse der Zytotoxizitäts-Testung gegen L1210-Zellen in vitro sind in Tabelle 1 zusammengefaßt. Tabelle 1

[1] = Stability / hydrolysis of the spacer-bearing anthracyclines in phosphate-buffered saline, HPLC analysis; assay type: physicochemical
Description: Die jeweilige Verbindung wurde bei einer Konzentration von 1 mg/ml in Acetonitril gelöst und mit Phosphat-gepufferter Kochsalzlösung pH 7.2 im Volumenverhältnis 1:100 verdünnt, wobei eine Konzentration von jeweils 10 µg/ml erhalten wurde. Diese Lösungen wurden jeweils bei 37 °C im Dunkeln inkubiert und 20 µl-Aliquote wurden nach definierten Zeiten mittels der HPLC-Technik untersucht. Die Stabilitäten dieser Verbindungen sind in Fig. 1 graphisch dargestellt.
Verbindung 10 wurde, wie vorstehend beschrieben, unrersucht und mittels HPLC-Technik analysiert.
Verbindung 12 wurde analog zu Verbindung 10 hydrolysiert, wobei jedoch ein pH-Wert von 7,4 verwendet wurde.

[2] = 1 h incubation at 37°C, then washed, colonies counted after 7 days
[3] = continuous exposure in agar, 7 days at 37°C, not differentiated by possible hydrolysis products (footnote a)
[4] = 10 µg/ml in phosphate-buffered saline pH 7.2, 37 °C, dark, releases β-Rhodomycin-I directly and via an intermediate

| Hydrolyse [1, 4] | Hydrolyse ([1]; as for Verbindung 10 but pH 7,4, 37 °C) | Molecule | IC₅₀-Werte gegenüber L1210-Zellen in vitro, 1h-Inkubation (L1210 Leukämiezellen; [2]) | IC₅₀-Werte gegenüber L1210-Zellen in vitro, Dauerinkubation (L1210 Leukämiezellen; [3]) | IC50 (L1210 Leukämiezellen; L1210, 168 h, continuous exposure in agar, 7 days at 37°C, not differentiated by possible hydrolysis products (footnote a), read-out: IC₅₀-Werte gegenüber L1210-Zellen in vitro, Dauerinkubation) [µg/mL] | IC50 (L1210 Leukämiezellen; L1210, 1 h incubation at 37°C, then washed, colonies counted after 7 days, read-out: IC₅₀-Werte gegenüber L1210-Zellen in vitro, 1h-Inkubation) [µg/mL] |
| --- | --- | --- | --- | --- | --- | --- |
| – | – | CC[C@@]1(O)C[C@H](O[C@H]2C[C@H](N(C)C)[C@H](O)[C@H](C)O2)c2c(O)c3c(c(O)c2[C@H]1O)C(=O)c1cccc(O)c1C3=O [β-Rhodomycin-I, 7-O-(α-L-Rhodosaminyl)-β-rhodomycinon, reference compound] | 0,05 µg/ml | 0,022 µg/ml | – | – |
| analoges Hydrolyseverhalten | – | CC[C@@]1(O)C[C@H](O[C@H]2C[C@H](N(C)C)[C@H](OC(=O)c3ccc(N4C(=O)C=CC4=O)cc3)[C@H](C)O2)c2c(O)c3c(c(O)c2[C@H]1O)C(=O)c1cccc(O)c1C3=O [Verbindung 8] | 0,5 µg/ml | 0,11 µg/ml | – | – |
| – | – | CC[C@@]1(O)C[C@H](O[C@H]2C[C@H](N(C)C)[C@H](O[C@H]3C[C@@H]4O[C@H]5CC(=O)[C@H](C)O[C@H]5O[C@@H]4[C@H](C)O3)[C@H](C)O2)c2c(O)c3c(c(O)c2[C@H]1O[C@H]1C[C@H](N(C)C)[C@H](O)[C@H](C)O1)C(=O)c1cccc(O)c1C3=O [Cytorhodin-S, reference compound] | 0,013 µg/ml | 0,003 µg/ml | – | – |
| analoges Hydrolyseverhalten | – | CC[C@@]1(O)C[C@H](O[C@H]2C[C@H](N(C)C)[C@H](OC(=O)CCN3C(=O)C=CC3=O)[C@H](C)O2)c2c(O)c3c(c(O)c2[C@H]1O)C(=O)c1cccc(O)c1C3=O [Verbindung 11, 7-O-[4′-O-(3-Maleimidopropionyl)-α-L-rhodosaminyl]-βrhodomycinon] | 0,11 µg/ml | 0,028 µg/ml | – | – |
| – | – | COc1cccc2c1C(=O)c1c(O)c3c(c(O)c1C2=O)C[C@@](O)(C(=O)CO)C[C@@H]3O[C@H]1C[C@H](N)[C@H](O)[C@H](C)O1 [Adriamycin, reference compound] | – | – | 0.02 (≈ 0.0368 µM) | 0.04 (≈ 0.0736 µM) |
| – | analoges Hydrolyseverhalten | 4˝-O-(4-Maleimidobenzoyl)-cytorhodin-S [Verbindung 12] | 0,0095 µg/ml | 0,0028 µg/ml | – | – |

| Molecule | Hydrolyse [1, 4] | Hydrolyse ([1]; as for Verbindung 10 but pH 7,4, 37 °C) | IC₅₀-Werte gegenüber L1210-Zellen in vitro, 1h-Inkubation (L1210 Leukämiezellen; [2]) | IC₅₀-Werte gegenüber L1210-Zellen in vitro, Dauerinkubation (L1210 Leukämiezellen; [3]) | IC50 (L1210 Leukämiezellen; L1210, 168 h, continuous exposure in agar, 7 days at 37°C, not differentiated by possible hydrolysis products (footnote a), read-out: IC₅₀-Werte gegenüber L1210-Zellen in vitro, Dauerinkubation) [µg/mL] | IC50 (L1210 Leukämiezellen; L1210, 1 h incubation at 37°C, then washed, colonies counted after 7 days, read-out: IC₅₀-Werte gegenüber L1210-Zellen in vitro, 1h-Inkubation) [µg/mL] |
| --- | --- | --- | --- | --- | --- | --- |
| CCC1(O)CC(OC2CC(N(C)C)C(OC(=O)c3ccc(N4C(=O)C=CC4=O)cc3OC(C)=O)C(C)O2)c2c(O)c3c(c(O)c2C1O)C(=O)c1cccc(O)c1C3=O [Verbindung 10, 7-O-[4′-O-(2-Acetoxy-4-maleimidobenzoyl)-α-L-rhodosaminyl]-β-rhodomycinon] | hydrolytisch zersetzt | – | – | – | – | – |
